T1: Solute carrier family 22 member 1 (Homo sapiens, UniProt O15245)
T1 sequence (O15245 whole entry): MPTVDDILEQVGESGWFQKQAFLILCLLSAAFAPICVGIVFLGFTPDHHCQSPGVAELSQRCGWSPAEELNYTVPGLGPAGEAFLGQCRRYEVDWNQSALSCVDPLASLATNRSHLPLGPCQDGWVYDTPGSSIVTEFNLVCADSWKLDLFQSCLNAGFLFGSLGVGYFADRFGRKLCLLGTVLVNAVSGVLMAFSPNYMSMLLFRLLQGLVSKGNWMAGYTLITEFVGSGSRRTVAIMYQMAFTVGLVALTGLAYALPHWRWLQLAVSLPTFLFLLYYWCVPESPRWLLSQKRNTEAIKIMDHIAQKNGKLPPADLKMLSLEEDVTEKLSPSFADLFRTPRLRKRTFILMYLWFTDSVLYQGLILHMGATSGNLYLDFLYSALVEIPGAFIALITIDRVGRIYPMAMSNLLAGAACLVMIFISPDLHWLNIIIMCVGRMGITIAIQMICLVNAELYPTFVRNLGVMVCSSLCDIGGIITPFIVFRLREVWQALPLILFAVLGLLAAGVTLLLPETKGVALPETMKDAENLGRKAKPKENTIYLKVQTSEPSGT

T2: OCT1 (SLC22A1) (Homo sapiens, UniProt O15245)
T2 sequence (O15245 whole entry): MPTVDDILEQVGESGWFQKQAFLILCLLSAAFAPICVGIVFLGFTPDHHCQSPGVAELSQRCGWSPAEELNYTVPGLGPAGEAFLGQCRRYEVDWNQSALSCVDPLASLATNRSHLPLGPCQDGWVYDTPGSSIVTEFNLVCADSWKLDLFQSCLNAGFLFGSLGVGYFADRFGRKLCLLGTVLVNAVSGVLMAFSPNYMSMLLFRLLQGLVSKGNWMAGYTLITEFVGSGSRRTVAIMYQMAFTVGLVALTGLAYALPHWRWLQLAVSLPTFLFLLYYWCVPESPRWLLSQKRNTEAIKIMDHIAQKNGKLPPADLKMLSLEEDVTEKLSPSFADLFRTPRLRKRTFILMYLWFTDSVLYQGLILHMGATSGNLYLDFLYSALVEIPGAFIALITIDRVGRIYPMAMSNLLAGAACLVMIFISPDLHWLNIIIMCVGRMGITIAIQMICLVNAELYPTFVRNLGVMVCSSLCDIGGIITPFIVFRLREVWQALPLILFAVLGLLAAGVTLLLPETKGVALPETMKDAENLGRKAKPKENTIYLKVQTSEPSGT


Key:
[1] = target: T1, Solute carrier family 22 member 1; format: cell-based, HEK293
OCT1 (SLC22A1) [2] = target: T2, OCT1 (SLC22A1); test: in vitro
OCT1 (SLC22A1) [3] = target: T2, OCT1 (SLC22A1); test: Inhibition of 4-(4-(dimethylamino)styryl)-N-methylpyridinium uptake at human OCT1 expressed in HEK293 cells at 10 uM by confocal microscopy; format: cell-based; conditions: HEK293 cells that express human OCT1, probe 4-(4-(dimethylamino)styryl)-N-methylpyridinium
not read = substrate: CC[N+](CC)(CC)CC; test: not read
[4] = HEK293 cells that express human OCT1, probe 4-(4-(dimethylamino)styryl)-N-methylpyridinium

Molecule | IC50 [1] [µM] | inhibition at 100 µM (OCT1 (SLC22A1) [2]; [4]) [%] | inhibition at 100 µM (OCT1 (SLC22A1) [2]; hek293) [%] | inhibition at 10 µM (OCT1 (SLC22A1) [3]) [%] | Km (not read) [µM]
N=C(N)NC(=O)c1nc(Cl)c(N)nc1N [AMILORIDE] | 57 | 68.7 | – | – | –
CN(C)CCC=C1c2ccccc2CCc2ccccc21 [AMITRIPTYLINE] | 16.9 | 78.5 | – | – | –
COc1cc(NS(C)(=O)=O)ccc1Nc1c2ccccc2nc2ccccc12 [AMSACRINE] | 5 | 68.4 | – | – | –
CN1CCc2cccc3c2[C@H]1Cc1ccc(O)c(O)c1-3 [APOMORPHINE] | 20.8 | 69 | – | – | –
CC(C)(Cc1c[nH]c2ccccc12)NCC(O)COc1ccccc1C#N (configuration not stated) [BUCINDOLOL] | 27.2 | 84.6 | – | – | –
CN(C)CCCN1c2ccccc2Sc2ccc(Cl)cc21 [CHLORPROMAZINE] | 27 | 85.1 | – | – | –
CN(C)CC/C=C1/c2ccccc2Sc2ccc(Cl)cc21 [CHLORPROTHIXENE] | 77.8 | 65.4 | – | – | –
CN(C)CCCC1(c2ccc(F)cc2)OCc2cc(C#N)ccc21 (configuration not stated) [CITALOPRAM] | 18.8 | – | 52 | – | –
CN1CCC[C@@H]1CCO[C@](C)(c1ccccc1)c1ccc(Cl)cc1 [CLEMASTINE] | 4.9 | 78.8 | – | – | –
CN(C)CCCN1c2ccccc2CCc2ccc(Cl)cc21 [CLOMIPRAMINE] | 19.3 | 85.3 | – | – | –
Clc1cccc(Cl)c1N=C1NCCN1 [CLONIDINE] | 22.6 | – | 65.4 | – | –
COc1ccc(CCNC[C@H](O)c2ccc(O)cc2)cc1OC [DENOPAMINE] | 46.9 | – | 51.5 | – | –
CNCCCN1c2ccccc2CCc2ccccc21 [DESIPRAMINE] | 56.8 | – | 84.3 | – | –
COc1ccc([C@@H]2Sc3ccccc3N(CCN(C)C)C(=O)[C@@H]2OC(C)=O)cc1 [DILTIAZEM] | 12.4 | 65.5 | – | – | –
OCCN1CCN(CCCN2c3ccccc3Sc3ccc(C(F)(F)F)cc32)CC1 [FLUPHENAZINE] | 110 | 61.9 | – | – | –
O=C(CCCN1CCC(O)(c2ccc(Cl)cc2)CC1)c1ccc(F)cc1 [HALOPERIDOL] | 142 | 67.1 | – | – | –
CN(C)CCCN1c2ccccc2CCc2ccccc21 [IMIPRAMINE] | 17.1 | – | 82.8 | – | –
CN(C)C(=O)C(CCN1CCC(O)(c2ccc(Cl)cc2)CC1)(c1ccccc1)c1ccccc1 [LOPERAMIDE] | 23.7 | – | 73.4 | – | –
CC12CC3CC(C)(C1)CC(N)(C3)C2 [MEMANTINE] | 27.2 | 58.6 | – | – | –
C[N+]1(C)CCCC(OC(=O)C(O)(c2ccccc2)c2ccccc2)C1 (configuration not stated) [MEPENZOLATE BROMIDE] | 64.9 | 59.5 | – | – | –

Molecule | IC50 [1] [µM] | inhibition at 100 µM (OCT1 (SLC22A1) [2]; [4]) [%] | inhibition at 100 µM (OCT1 (SLC22A1) [2]; hek293) [%] | inhibition at 10 µM (OCT1 (SLC22A1) [3]) [%] | Km (not read) [µM]
CCN(CC)CCNC(=O)c1cc(Cl)c(N)cc1OC [METOCLOPRAMIDE] | 94.8 | 52.3 | – | – | –
CN1CC[C@]23c4c5ccc(O)c4O[C@H]2[C@@H](O)C=C[C@H]3[C@H]1C5 [MORPHINE] | 28 | 67.9 | – | – | –
C[C@]12CC[C@H]3[C@@H](CCC4=CC(=O)CC[C@@H]43)[C@@H]1CC[C@@H]2O [NANDROLONE] | 35.1 | – | 79.3 | – | –
Cc1nccn1CC1CCc2c(c3ccccc3n2C)C1=O (configuration not stated) [ONDANSETRON] | 20.4 | – | 63.8 | – | –
C=CCOc1ccccc1OCC(O)CNC(C)C (configuration not stated) [OXPRENOLOL] | 28.6 | – | 61.5 | – | –
CC(COc1ccccc1)N(CCCl)Cc1ccccc1 (configuration not stated) [PHENOXYBENZAMINE] | 15.1 | 56.7 | – | – | –
COc1cc2nc(N3CCN(C(=O)c4ccco4)CC3)nc(N)c2cc1OC [PRAZOSIN] | 9.9 | – | 55.6 | 55.6 | –
CN1CCN(CCCN2c3ccccc3Sc3ccc(Cl)cc32)CC1 [PROCHLORPERAZINE] | 49.6 | 66.5 | – | – | –
CN(C)CCCN1c2ccccc2Sc2ccccc21 [PROMAZINE] | 17.2 | 79.2 | – | – | –
CC(CN1c2ccccc2Sc2ccccc21)N(C)C (configuration not stated) [PROMETHAZINE] | 35.1 | 71.1 | – | – | –
CCCNCC(O)COc1ccccc1C(=O)CCc1ccccc1 (configuration not stated) [PROPAFENONE] | 11.1 | 83.8 | – | – | –
CC(C)NCC(O)COc1cccc2ccccc12 (configuration not stated) [PROPRANOLOL] | 63.2 | 55.4 | – | – | –
CCOc1cc(CC(=O)N[C@@H](CC(C)C)c2ccccc2N2CCCCC2)ccc1C(=O)O [REPAGLINIDE] | 9.2 | 76.4 | – | – | –
COc1cc2nc(N3CCN(C(=O)C4CCCO4)CC3)nc(N)c2cc1OC (configuration not stated) [TERAZOSIN] | 23.7 | 77 | – | – | –
COc1cccc(C2(O)CCCCC2CN(C)C)c1 (configuration not stated) [TRAMADOL] | 52.5 | 60.2 | – | – | –
CC(CN(C)C)CN1c2ccccc2CCc2ccccc21 (configuration not stated) [TRIMIPRAMINE] | 27.7 | 77.2 | – | – | –
CC(=O)CC(c1ccccc1)c1c(O)c2ccccc2oc1=O (configuration not stated) [WARFARIN] | – | 4 | – | – | –
CC(=O)N[C@H]1[C@H]([C@H](O)[C@H](O)CO)OC(C(=O)O)=C[C@@H]1N=C(N)N [ZANAMIVIR] | – | 2 | – | – | –
Cc1cn([C@H]2C[C@H](N=[N+]=[N-])[C@@H](CO)O2)c(=O)[nH]c1=O [ZIDOVUDINE] | – | 4.7 | – | – | –
Solute carrier family 22 member 1 (Homo sapiens) (protein) MPTVDDILEQVGESGWFQKQAFLILCLLSAAFAPICVGIVFLGFTPDHHCQSPGVAELSQRCGWSPAEELNYTVPGLGPAGEAFLGQCRRYEVDWNQSALSCVDPLASLATNRSHLPLGPCQDGWVYDTPGSSIVTEFNLVCADSWKLDLFQSCLNAGFLFGSLGVGYFADRFGRKLCLLGTVLVNAVSGVLMAFSPNYMSMLLFRLLQGLVSKGNWMAGYTLITEFVGSGSRRTVAIMYQMAFTVGLVALTGLAYALPHWRWLQLAVSLPTFLFLLYYWCVPESPRWLLSQKRNTEAIKIMDHIAQKNGKLPPADLKMLSLEEDVTEKLSPSFADLFRTPRLRKRTFILMYLWFTDSVLYQGLILHMGATSGNLYLDFLYSALVEIPGAFIALITIDRVGRIYPMAMSNLLAGAACLVMIFISPDLHWLNIIIMCVGRMGITIAIQMICLVNAELYPTFVRNLGVMVCSSLCDIGGIITPFIVFRLREVWQALPLILFAVLGLLAAGVTLLLPETKGVALPETMKDAENLGRKAKPKENTIYLKVQTSEPSGT | – | – | – | – | 2.32
